These results are taken from publication PMC9820444, “Design and Synthesis of Acridine-Triazole and Acridine-Thiadiazole Derivatives and Their Inhibitory Effect against Cancer Cells” (International Journal of Molecular Sciences, 2022).

Where two headings read alike, the source gives them in different places. Marks after values point to notes of the source that are not given here.

Series [1] concerns human foreskin fibroblasts (HFF). In words: MTT antiproliferative assay, HFF. The class given is cell-based. As to conditions: read-out: Effect against cell viability (IC50), HFF. The procedure:
(§1) All newly synthesized acridinyl derivatives (4–6) were screened for their anticancer activities in comparison to the reference compounds, 5-FU and cis-platinum. Compounds 4–6 were tested for their in vitro antitumor activities against HFF, MGC-803, BEL-7404, NCI-H460, and T24 tumor cell lines, and human normal liver cells (LO2), and the results are shown in Table 1. Most of the compounds had strong selective potency against MGC-803 and T24 cancer cells. […] In the T24 cell line assay, many compounds, especially the series of compound 4, had significant activity against T24. This implies that there is a significant increase in potency after the introduction of the aroyl thiourea group. […] To our delight, most 1,2,4-triazolethiones (5) and 1,2,4-thiadiazoles (6) have low toxicity to LO2 compared with the positive control.
(§2) Test samples, including compounds 4–6 and commercial classical anticancer drugs (5-FU and cis-platinum), were screened for their anti-cancer activity against HFF human foreskin fibroblast cells, MGC-803 human gastric cancer cells, BEL-7404 human hepatocellular carcinoma cells, NCI-H460 human large cell carcinoma cells, and T24 human bladder carcinoma cells using the 3-(4,5-dimethylthiazol-2-yl)-2,5-diphenyltetrazoliumbromide (MTT) assay method cited in the literature. The initial concentration of all the test samples was 100 μg/mL, which was serially diluted in complete medium with ten-fold dilutions to give six concentrations per compound. Their cytotoxicity was determined in 96-well flat bottomed microtiter plates. All the test samples were tested in triplicate. The results were expressed as the drug concentration that inhibited cell growth by 50% as compared to the controls (IC50). The IC50 values were calculated from regression lines obtained from the percent cell growth inhibition plotted as a function of the logarithm of the dose.
For orientation: Tetrazolium dyes change colour on reduction, which living cells bring about.

The subject of series [2] is human gastric cancer cells-803 (MGC-803). Nature of the series: MTT antiproliferative assay, MGC-803. The class given is cell-based. As to conditions: read-out: Effect against cell viability (IC50), MGC-803. The procedure: as §1, §2
Series [3] deals with hepatocellular carcinoma bel-7404 (BEL-7404). Nature of the series: MTT antiproliferative assay, BEL-7404. The series is classed as cell-based, human. As to conditions: read-out: Effect against cell viability (IC50), BEL-7404. The procedure: as §1, §2
Series [4] has as its system large cell lung cancer cells (NCI-H460). Nature of the series: MTT antiproliferative assay, NCI-H460. The class given is cell-based, human. As to conditions: read-out: Effect against cell viability (IC50), NCI-H460. The procedure:
as §1, §2

Series [5] relates to bladder cancer cells (T24). In words: MTT antiproliferative assay, T24. As to conditions: read-out: Effect against cell viability (IC50), T24. The series is classed as cell-based, human. Here is the method: as §1, §2
Series [6] concerns human normal liver cells (LO2). Nature of the series: Cytotoxicity against normal liver cells LO2. The class given is cell-based. As to conditions: MTT, read-out: Effect against cell viability (IC50), LO2. The procedure:
as §1, §2

Series [7] deals with subintestinal veins (SIVs) in zebrafish embryos. In words: Zebrafish angiogenesis assay (subintestinal veins, NBT/BCIP staining). The class given is in vivo. As to conditions: zebrafish embryos, 1 mg/mL. From the text: Currently, the zebrafish has emerged as a valuable model organism to substitute traditional models for studying angiogenesis inhibitors. The genes of zebrafish show 70–80% similarity to humans, and the vascular structure of zebrafish has high similarity to that of other vertebrates. Therefore, the subintestinal veins (SIVs) in the zebrafish embryos are used as evaluation indicators for anti-angiogenesis inhibitors. In this study, NBT/BCIP vascular staining was used to observe the angiogenesis effect of representative drugs (4h, 4f, 5d, 5h, 6g and 6h) in a zebrafish model. […] Compared with the blank control group, the area of the meshed pattern vessel and the number of vascular branches in the network decreased after the administration of compounds 4h, 5d, 5h and 6h.
The 24 hpf zebrafish embryos were dechorionated with a 1 gL^−1 pronase treatment and maintained in distilled water in 12-well cell culture plates (each well contained 20 embryos). A negative control group containing zebrafish embryos in distilled water and a vehicle treatment group that was treated with 2% dimethyl sulfoxide (DMSO) were prepared. The anti-angiogenic compounds were diluted to 1 mg/mL. After incubating at 28 °C for […], the embryos were immersed in 4% paraformaldehyde and dehydrated by gradient ethanol. Subsequently, the embryos were balanced in NTMT buffer (5 M NaCl + 1 M Tris [pH 9.0–9.5] + 1 M MgCl2+ 10% Tween), and nitrotetrazolium blue chloride (NBT) and p-toluidine salt (BCIP) staining were performed. To evaluate the effect of compounds on the angiogenesis of zebrafish embryos, the growth of embryonic sub-intestinal veins (SIVs) at 72 hpf was observed using an IX71 Olympus microscope (Hamburger, Germany). The length of the SIVs was calculated using the image J 1.8.0 software (Bethesda, MD, USA).

In series [8] the target is T1, DNA topoisomerase I (topo I) (Bos taurus, UniProt F1MN93).
T1 construct: purchased Takara Bio Inc. (Shiga, Japan)
T1 sequence (F1MN93 1-767): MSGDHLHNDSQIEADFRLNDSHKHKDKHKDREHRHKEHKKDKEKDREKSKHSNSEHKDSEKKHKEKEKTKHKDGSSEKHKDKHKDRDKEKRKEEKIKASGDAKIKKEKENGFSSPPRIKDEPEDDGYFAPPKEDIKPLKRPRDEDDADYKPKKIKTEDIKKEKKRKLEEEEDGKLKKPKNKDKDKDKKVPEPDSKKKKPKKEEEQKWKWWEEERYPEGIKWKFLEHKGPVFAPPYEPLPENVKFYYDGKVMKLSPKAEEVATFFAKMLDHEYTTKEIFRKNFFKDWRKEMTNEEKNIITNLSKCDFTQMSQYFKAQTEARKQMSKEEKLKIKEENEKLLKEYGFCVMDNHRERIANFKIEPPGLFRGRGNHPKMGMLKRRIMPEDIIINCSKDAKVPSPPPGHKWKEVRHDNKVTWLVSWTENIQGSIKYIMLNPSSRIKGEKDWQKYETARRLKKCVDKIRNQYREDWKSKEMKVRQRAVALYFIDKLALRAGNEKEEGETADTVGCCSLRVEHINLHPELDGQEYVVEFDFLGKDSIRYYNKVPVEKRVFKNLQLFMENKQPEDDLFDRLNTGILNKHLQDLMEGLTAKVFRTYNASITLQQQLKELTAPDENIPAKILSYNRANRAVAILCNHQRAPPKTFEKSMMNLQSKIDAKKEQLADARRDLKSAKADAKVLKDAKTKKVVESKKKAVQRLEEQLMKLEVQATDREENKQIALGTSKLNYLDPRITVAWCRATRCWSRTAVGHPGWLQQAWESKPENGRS
In words: Topo I inhibitory activity (pBR322). The series is classed as biochemical. As to conditions: at 100 µM.

In series [9] the test system is T24 cells. Nature of the series: Apoptosis by Annexin V-FITC/PI flow cytometry, T24. As to conditions: T24, at IC50 concentration (4h 8.05 μM; 6h 8.93 μM); control 1.18%. The class given is cell-based, human. Here is the method: The apoptosis ratios of MGC80-3 or T24 cell lines induced by the selected compounds at the concentration of IC50 and 0.5 IC50 were quantitatively determined by flow cytometry. Four quadrant images (Q1, Q2, Q3 and Q4) were observed by flow cytometric analysis. The results of apoptosis ratios (including the early and late apoptosis ratios) after 12 h are presented in Figure 6 (MGC80-3) and Figure 7 (T24). […] After treatment with compound 6h, 5.62% (3.43 μM) and 14.25% (6.85 μM) of the cells were apoptotic. These were higher percentages than the one observed in the control (0.586%). […] The results evidently illustrate that representative compounds 5d and 6h or 4h and 6h could suppress cell proliferation by inducing apoptosis in the early apoptotic period.
(§3) The apoptosis assay and the cell cycle analysis were carried out by cytometry (FACSVerse, BD, Piscataway, NJ, USA) at an excitation wavelength of 488 nm according to the method described in the literature with slight modifications. The cells were seeded at 2 × 10^6/well and washed by cold PBS. The buffer solutions were prepared using 0.1 M pH 7.4 Hepes/NaOH, 1.4 M NaCl, and 25 mM CaCl2.
(In flow cytometry, cells or beads pass a laser one at a time.)

Series [10] concerns T24 cells. In words: Cell cycle analysis by flow cytometry, T24. The series is classed as cell-based, human. As to conditions: T24, 8.05 μM (IC50), 48 h; control 22.89%. Here is the method: Compared to control, both compounds 4h and 5d interfered with the cell cycles of T24 and MGC80-3 cells, respectively.
as §3

The next series relates to zebrafish embryos. As to conditions: for MAR (malformation rate) / MOR (mortality rate): zebrafish embryos 72 hpf. The procedure:
In this experiment, 2% DMSO was used to dissolve the target products, and the abnormal rate (MAR) and mortality rate (MOR) of zebrafish embryos (72 hpf) were used for statistics.
The zebrafish embryos were collected at 6 hpf and randomly divided into naive control (embryos maintained in distilled water), vehicle control (embryos treated with 2% DMSO), and drug groups. Stock solutions of all drugs were prepared in 2% DMSO as a solubilizing agent and diluted to three concentrations (0.5 mg/mL, 1 mg/mL, and 2 mg/mL). Each group had 20 embryos per test concentration. […] Each compound was evaluated in three independent biological experiments.

Molecule `CC1=CC2C(=Nc3nnc(-c4ccccc4)s3)c3ccccc3NC2C=C1` (stereo not shown) [6g, 7-methyl-N-(5-phenyl-1,3,4-thiadiazol-2-yl)-10,10a-dihydroacridin-9(8aH)-imine] gave a melting point of 294 to 296 °C. For the same molecule, the IC50 in series [1] (Homo sapiens, Fibroblast) is 76.5 ± 2.79 µM. Further, the IC50 in series [2] (Homo sapiens, MGC-803, MTT) was found to be 9.01 ± 1.32 µM. Also, the IC50 in series [2] (MTT) came to 9.95 ± 1.03 µM. Further, the IC50 in [3] (Homo sapiens) amounted to 31.2 ± 3.27 µM. Further, the IC50 in series [4] (Homo sapiens) is 25.9 ± 1.83 µM. The IC50 in series [5] (Homo sapiens) is 19.3 ± 1.05 µM. Further, the IC50 in series [6] (Homo sapiens) was > 100 µM. In [7] (additional blood vessels were formed on the blood vessel edge), the “area of blood vessels” value was “could reduce the area of blood vessels”.

For the molecule `COc1ccc(-c2n[nH]c(=S)n2-c2c3ccccc3nc3ccc(OC)cc23)cc1` [5c, 4-(2-methoxyacridin-9-yl)-5-(4-methoxyphenyl)-2,4-dihydro-3H-1,2,4-triazole-3-thione], the melting point fell in the range of 262 to 267 °C. In addition, in series [1] (Homo sapiens, Fibroblast), the IC50 was 75.5 ± 2.92 µM. Moreover, the IC50 in [2] (Homo sapiens, MGC-803, MTT) was found to be 15.1 ± 0.98 µM. Besides, in series [3] (Homo sapiens), the IC50 was determined as 28.7 ± 2.24 µM. Also, in series [4] (Homo sapiens), the IC50 was found to be 36.5 ± 3.92 µM. Further, the IC50 in [5] (Homo sapiens) was 29.3 ± 1.91 µM. For the same molecule, the IC50 in series [6] (Homo sapiens) is > 100 µM. Besides, the “topo I inhibitory activity” value in [8] was “potent”.

Take `COc1ccc(C(=O)NNC(=S)Nc2c3ccccc3nc3ccc(C)cc23)cc1` [4h, 1-2′-methyl acridinyl-3-4’-methoxy benzoyl thiosemicarbazides]: the IC50 was > 100 µM in series [1]; 11.2 ± 1.46 µM in series [2] (MTT); 27.1 ± 2.91 µM in series [3]; 25.4 ± 3.16 µM in series [4]; 8.05 ± 1.06 µM in [5]; 9.01 ± 0.93 µM in series [6]. Further, the apoptosis ratio with T24 cells [9] was found to be 12.377%. In the series on T24 cells [10], the S phase population is listed as 30.04%. Moreover, the “MAR (malformation rate)” value turned out to be 35% ^a in the series with zebrafish embryos (1 mg/mL), 85% ^a in the series on zebrafish embryos (1.5 mg/mL) and 35% ^a in the series with zebrafish embryos (2 mg/mL). The figures for the “MOR (mortality rate)” value with zebrafish embryos (1 mg/mL), in the series on zebrafish embryos (1.5 mg/mL) and in the series on zebrafish embryos (2 mg/mL) were 15% ^a, 15% ^a and 65% ^a, respectively. The “total mortality and malformation rate” value in the series with zebrafish embryos (zebrafish embryos, 2.0 mg.L^−1) was 100%. The “area of the meshed pattern vessel and number of vascular branches in the network” value in [7] (compared with blank control group) is on record as “decreased”.

As for `COc1ccc2[nH]c3ccccc3c(=NC(=S)NNC(=O)c3ccc(Cl)cc3)c2c1` [4e], the IC50 in series [1] amounted to 66.8 ± 4.52 µM; in series [2] (MTT), 25.6 ± 1.97 µM; in [3] it was 25.9 ± 2.17 µM; in series [4], 73.2 ± 3.67 µM; in [5], 10.3 ± 1.07 µM; in series [6] it was 10.2 ± 1.12 µM. In addition, in series [8], the “topo I inhibitory activity” value was “potent”.

A word on the melting point: it is the temperature of the solid-liquid transition.
